Results taken from US20200113854A1, “Composition for Improving Brain Function” (MORINAGA MILK INDUSTRY CO., LTD., priority 2017, published 2020).

Test system: Alzheimer's disease model mice
Protocol: With reference to NPL 6, Alzheimer's disease model mice were prepared according to the following procedure and the improvement effect of acetic acid was evaluated.
Taking the day when the administration was started as Day 1, amyloid was injected on Day 3. Specifically, an animal was anesthetized by intraperitoneally administering 40 mg/kg of pentobarbital sodium (Tokyo Chemical Industry Co., Ltd.) (amount of liquid administered: 10 mL/kg). After anesthesia, levobupivacaine hydrochloride (Popscaine (registered tradename) 0.25% inj., Maruishi Pharmaceutical Co. Ltd.) was subcutaneously administered (0.1 mL) to the scalp. After anesthesia, hair of a parietal region of the animal was cut and the head was fixed on a brain stereotaxic apparatus.
The scalp was disinfected with ethanol for disinfection and then was cut to expose the cranial bone. […]
An animal was placed in any one arm of the Y-shaped maze and was allowed to freely sleuth in the maze for 8 minutes. The order of the arms that the animal moved during the measurement period was recorded and the number of the movements to arms was counted and taken as a total entry number. […]
A spontaneous alternation action rate was calculated with the following formula. […]

Q: What does the source list for `CC(=O)[O-].[Na+]` [Sodium acetate, sodium acetate]?
A: Spontaneous alternation action rate (%) (Amyloid β injection group, 150 mM sodium acetate with drinking water, Y-maze 8 minutes, p < 0.01 vs Amyloid β + physiological saline): 67.5%; cognitive function of Alzheimer disease model mice (intake of 150 mM sodium acetate with drinking water): improved a cognitive function
